Data on four compounds can be found in US9957270B2, “Fused pyrimidine-based hydroxamate derivatives” (Agency for Science, Technology and Research, priority 2014, dated 2018).

Where a name gives a salt, the structure may show the parent alone. Read-outs that look alike come from different tables or passages of the source.

The test system of series [1] is HepG2 xenograft. An excerpt:
In FIG. 26, Efficacy in CB17 scid mice HepG2 xenograft model is shown. […] Vehicle group has BW loss due to increasing tumor burden.

For series [2], the system named is HepG2 xenograft. The source holds these as a separate data set.
For a further series, the system named is A549. The experiment in a line: Anti-proliferative assay (cellular IC50), A549. To be noted: Homo sapiens, A549, read-out: In Vitro Cellular IC50 A549.
A further series relates to HCCLM3. The experiment in a line: Anti-proliferative assay (cellular IC50), HCCLM3. To be noted: Homo sapiens, HCCLM3, read-out: In Vitro Cellular IC50 HCCLM3.
Another series has as its system SK-HEP1. Put plainly: Anti-proliferative assay (cellular IC50), SK-HEP1. To be noted: Homo sapiens, SK-HEP1, read-out: In Vitro Cellular IC50 SK-HEP1.
Another series deals with Pfeiffer. Put plainly: Anti-proliferative assay (cellular IC50), Pfeiffer. To be noted: Homo sapiens, read-out: In Vitro Cellular IC50 Pfeiffer.
The subject of another series is NCI-H522. The experiment in a line: Anti-proliferative assay (cellular IC50), NCI-H522. The conditions noted are these: Homo sapiens, NCI-H522, read-out: In Vitro Cellular IC50 NCI-H522.
A further series has as its system MCF7. Put plainly: Anti-proliferative assay (cellular IC50), MCF7. The conditions noted are these: Homo sapiens.
The test system of a further series is MOLT-4. The experiment in a line: Anti-proliferative assay (cellular IC50), MOLT-4. To be noted: Homo sapiens.
In the next series the test system is U138MG. The experiment in a line: Anti-proliferative assay (cellular IC50), U138MG. To be noted: Homo sapiens, U138-MG, read-out: In Vitro Cellular IC50 U138MG.
For a further series, the system named is 4T1. The experiment in a line: cells. The conditions noted are these: Mus musculus, 4T1, read-out: In Vitro Cellular IC50 4T1.
In another series the test system is HuH-7. The experiment in a line: Anti-proliferative assay (cellular IC50), HuH-7. To be noted: Homo sapiens, Huh-7, read-out: In Vitro Cellular IC50 HuH-7.
Another series relates to HCT 116. The experiment in a line: cells. To be noted: Homo sapiens.
Another series has as its system HepG2. The experiment in a line: Anti-proliferative assay (cellular IC50), HepG2. To be noted: Homo sapiens.
For the next series, the system named is A-431. Put plainly: Anti-proliferative assay (cellular IC50), A-431. The conditions noted are these: Homo sapiens, A-431, read-out: In Vitro Cellular IC50 A-431.
A further series has as its system NCI-H460. The experiment in a line: Anti-proliferative assay (cellular IC50), NCI-H460. To be noted: Homo sapiens, NCI-H460, read-out: In Vitro Cellular IC50 NCI-H460.
The next series relates to PLC/PRF/5. The experiment in a line: cells. The conditions noted are these: Homo sapiens, PLC-PRF-5, read-out: In Vitro Cellular IC50 PLC/PRF/5.
Series [3] concerns the target HDAC (HeLa nuclear extracts). Put plainly: HDAC enzyme assay, HeLa nuclear extracts. To be noted: read-out: In Vitro Enzymatic IC50 HDAC (HeLa).
The next series concerns Daudi. Put plainly: Anti-proliferative assay (cellular IC50), Daudi. The conditions noted are these: Homo sapiens, read-out: In Vitro Cellular IC50 Daudi.
In the next series the test system is Raji. The experiment in a line: Anti-proliferative assay (cellular IC50), Raji. The conditions noted are these: Homo sapiens, read-out: In Vitro Cellular IC50 Raji.
For the next series, the system named is U87 MG. The experiment in a line: Anti-proliferative assay (cellular IC50), U87 MG. The conditions noted are these: Homo sapiens, U-87 MG, read-out: In Vitro Cellular IC50 U87 MG.
Series [4] has as its system MV-4-11. The experiment in a line: cells. To be noted: Homo sapiens.
A further series relates to HEL9217. The experiment in a line: Anti-proliferative assay (cellular IC50), HEL9217. To be noted: Homo sapiens, HEL 92.1.7, read-out: In Vitro Cellular IC50 HEL9217.
Series [5] deals with MV-4-11. The conditions noted are these: read-out: In Vitro Cellular IC50 MV-4-11; Table 4; 72 h.
The next series has as its system PC-3. The experiment in a line: Anti-proliferative assay (cellular IC50), PC-3. The conditions noted are these: read-out: In Vitro Cellular IC50 PC-3; Table 4; 72 h.
Series [6] is described as follows: Microsomal stability, human liver microsomes. To be noted: human, microsomes, 0.75 h, 5 μM, pH 7.4. How it is done:
(§1) GIBIO pooled human liver microsomes (HLM) (Cat # HMMCPL), mouse liver microsomes (MLM) (Cat # BCMCPL), and rat liver microsomes (RLM) (Cat # RTMCPL) were purchased from Life Technologies. […] Samples are incubated for 30, 45, or 60 min. Reaction is terminated with ice-cold acetonitrile 0.3% formic acid. Samples are subsequently centrifuged at 4° C. for 15 min at 20,000×g. The supernatant is analysed by LC-MS.
(§2) Compound in vitro metabolic stability was assayed using liver microsomes (LM) at 0.5 mg/mL of proteins, incubated for 30 min (mouse, MLM), 45 min (rat, RLM), 30 or 45 min (human, HLM). % of remaining parent compound was measured using LC-MS.
(Liver microsomes are vesicles of endoplasmic reticulum, rich in cytochrome P450 enzymes.)

In another series the test system is HuH-7 xenograft. The conditions noted are these: HuH-7, NCr nude mice, 150 mg/kg oral.
In the next series the test system is MV4-11 tumors. To be noted: EX2 IV 50, IP 100, PO 150 mg/kg; EX78 IV 25, PO 100 mg/kg; Western blot of tumors.
The subject of series [7] is histone 3 (Lys 9) and α-tubulin acetylation (HDACs) in PC-3 cells. Put plainly: Western blot, acetylation of histone 3 (Lys 9) and α-tubulin in PC-3 cells. To be noted: 24 h, 1 or 10 μM. The class given is cell-based, human. The protocol:
Proteins in cell lysates are resolved by SDS-PAGE and transferred to PVDF and probed with appropriate primary and secondary antibodies. […] Representative Western blot images are shown in FIG. 15 and analyzed results are presented by FIGS. 17 to 20.
PC-3 cells were treated with test compounds at the following concentrations (all contain 0.1% DMSO) for 24 h at 37° C., and then processed according to section of Western Blot Analysis.
The graph represents results from two Western Blot analyses. […] Vehicle DMSO (0.1%) was used as blank control, and its acH3 level was normalized to 1. Y Axis is expressed as Mean±SD if applicable.
Vehicle DMSO (0.1%) as blank control, and its acetylation level was normalized to 1. Y Axis is expressed as Mean±SD if applicable.
(Immunoblotting shows a protein as a band on a membrane.)

For series [8], the system named is MV-4-11 cells. Put plainly: Caspase activity assay, MV-4-11 cells. It is filed as cell-based, human. The conditions noted are these: Homo sapiens, MV4-11, 24 h, read-out: EC50 induction of caspase activity. The protocol:
Cells are cultivated and treated with test compounds in 96-well plates as described in the above Cell Culture and Anti-Proliferative Assays section. […] The incubation time can be extended up to overnight (18 h) if the Caspase activity is low. Staurosporine is used as positive control.
Y Axis is expressed as Mean±SD if applicable.

The test system of series [9] is MV-4-11 cells. Put plainly: Cell viability/cytotoxicity assay (CytoTox-Glo), MV-4-11 cells. The class given is cell-based, human. The conditions noted are these: Homo sapiens, MV4-11, 48 h, read-out: cell death potency EC50. The protocol:
Cells are cultivated and treated with test compounds in 96-well plates as described in the above Cell Culture and Anti-Proliferative Assays section, the content of dead cells and viable cells are measured using CytoTox-Glo™ Cytotoxicity Assay kit (Promega) per manufacture's protocol. Briefly, CytoTox-Glo™ Cytotoxicity Assay Reagent (48 μL/well) is added to the cells in 96-well plate and the luminescent signals are recorded using a BioTek Synergy H4 reader, then Lysis Reagent (48 μL/well) is added and the luminescent signals derived from both dead and viable cells are recorded. Viability can be calculated by subtracting the luminescent signal resulting from experimental cell death from total luminescent values. Staurosporine is used as positive control.
Fold of cell death of treated vs untreated was monitored at different time points. […] Y Axis is expressed as Mean±SD if applicable.

Series [10] can be described thus: Microsomal stability, rat liver microsomes. To be noted: rat, microsomes, 0.75 h, 5 μM, pH 7.4. The protocol:
as §1, §2

Series [11] can be described thus: Microsomal stability, mouse liver microsomes. The conditions noted are these: mouse, microsomes, 0.5 h, 5 μM, pH 7.4. How it is done: as §1, §2
Another series deals with NCI-H460 xenograft. To be noted: CB17 scid mice, 150 mg/kg oral.

As for `CNC(=O)c1cc(Oc2ccc(NC(=O)Nc3ccc(Cl)c(C(F)(F)F)c3)cc2)ccn1` [sorafenib tosylate], the “Tumor growth inhibition (TGI)” value in the series on HepG2 xenograft [1] (HepG2, CB17 scid mice, 100 mg/kg QD×5×2 then 80 mg/kg QD×5×2 oral, day 26) was 98%; with HepG2 xenograft [2] (HepG2, NCr nude mice, 98 mg/kg oral QD×5 per week, day 18), 71%. In addition, the Tolerability entry in the series with HepG2 xenograft [1] (mouse, in vivo, po, 100 mg/kg) was “not well tolerated”.

On to `O=C(CCCOc1cccc(-c2nc(N3CCOCC3)nc3c2ncn3C2CCCC2)c1)NO` [compound 100, 4-(3-(9-cyclopentyl-2-morpholino-9H-purin-6-yl)phenoxy)-N-hydroxybutanamide], for which the IC50 was less than 500 nM in the series on A549; 2000 to 10000 nM in the series on HCCLM3; 500 to 2000 nM in the series on SK-HEP1; less than 500 nM with Pfeiffer; 500 to 2000 nM in the series on NCI-H522; less than 500 nM in the series with MCF7 (MCF7, 72 h, read-out: In Vitro Cellular IC50 MCF7). Further, the IC50 in the series on MCF7 (MCF7, read-out: In Vitro Cellular IC50 MCF7) is less than 500 nM; with MOLT-4 (MOLT-4, 72 h, read-out: In Vitro Cellular IC50 MOLT-4), less than 500 nM; with MOLT-4 (MOLT-4, read-out: In Vitro Cellular IC50 MOLT-4), less than 500 nM; in the series with U138MG it was 500 to 2000 nM; in the series on 4T1, 500 to 2000 nM; with HuH-7 it was less than 500 nM. Moreover, the IC50 was less than 500 nM in the series on HCT 116 (HCT-116, 72 h, read-out: In Vitro Cellular IC50 HCT 116); less than 500 nM in the series with HCT 116 (HCT-116, read-out: In Vitro Cellular IC50 HCT 116); 500 to 2000 nM with HepG2 (HepG2, 72 h, read-out: In Vitro Cellular IC50 HepG2); 500 to 2000 nM with HepG2 (HepG2, read-out: In Vitro Cellular IC50 HepG2); 500 to 2000 nM in the series with A-431; less than 500 nM in the series on NCI-H460. Also, the IC50 in the series on PLC/PRF/5 is 500 to 2000 nM; in series [3], 10 to 100 nM; in the series with Daudi, less than 500 nM; in the series with Raji, less than 500 nM; in the series on U87 MG, 500 to 2000 nM; with MV-4-11 [4] (MV4-11, 72 h, read-out: In Vitro Cellular IC50 MV-4-11), less than 500 nM. Besides, the IC50 in the series with MV-4-11 [4] (MV4-11, read-out: In Vitro Cellular IC50 MV-4-11) was less than 500 nM; in the series on HEL9217 it was less than 500 nM.

As to “(N-hydroxy-7-(2-(3-(1- (hydroxyimino)ethyl)-4- methoxyphenyl)-6-morpholino-9H- purin-9-yl)heptanamide [compound 73]”, the results for the IC50 (in the series with MV-4-11 [5]; in the series on PC-3; in series [3]) were 500 to 2000 nM, 2000 to 10000 nM and less than 10 nM, respectively.

On to `O=C(CCCCCCn1cnc2c(N3CCOCC3)nc(-c3cccc(CO)c3)nc21)NO` [compound 2, N-hydroxy-7-(2-(3-(hydroxymethyl)phenyl)-6-morpholino-9H-purin-9-yl)heptanamide], for which, in series [6], the “Microsomal Stability HLM, % of remaining parent compound” value came to 99%. The Tolerability result with HuH-7 xenograft is recorded as “well-tolerated”; in the series with HepG2 xenograft [2] (NCr nude mice, 150 mg/kg oral), “well tolerated”; in the series with NCI-H460 xenograft it was “well tolerated”. The “maximum body weight loss vs vehicle group” value with HuH-7 xenograft is given as “less than 5%”. Besides, the “Hyperacetylation of H3 in MV4-11 tumors” value in the series on MV4-11 tumors is recorded as “hyperacetylation of H3 in MV4-11 tumors”. The “Hyperacetylation of histone 3 (Lys 9) and α-tubulin” value in series [7] was “the hyperacetylation effect is dose-dependent”. Also, the EC50 in the series with MV-4-11 cells [8] turned out to be 500 nM; with MV-4-11 cells [9], 69 nM. For the same compound, the “Microsomal Stability RLM, % of remaining parent compound” value in series [10] amounted to 57%. Further, the “Microsomal Stability MLM, % of remaining parent compound” value in series [11] was 99%.

As a reminder, the EC50 is the concentration that produces a half-maximal response.
